Experimental data published in patent US20230365592A1 (Agios Pharmaceuticals, Inc., priority 2022, published 2023).
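Further: after compound treatment, cells received sepiapterin plus isotope-labelled Phenylalanine for 4 hours, then labelled Tyrosine in the medium was quantified, 10-point 2-fold dilution series run in duplicate.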

These compounds were tested against T1, human PAH with the R408W mutation (Homo sapiens, UniProt P00439, R408W) (assay: Cell Based Phenylalanine Flux Assay). Conditions: A375 cells expressing R408W PAH; 24 hrs with compound, then 20 µM sepiapterin and 800 µM 13C9,15N-Phenylalanine for 4 hours; 13C-Tyrosine by LC-MS; average where tested multiple times; read-out: AC50.
T1 construct: expressed in transfected cells
T1 sequence (P00439 1-452 R408W): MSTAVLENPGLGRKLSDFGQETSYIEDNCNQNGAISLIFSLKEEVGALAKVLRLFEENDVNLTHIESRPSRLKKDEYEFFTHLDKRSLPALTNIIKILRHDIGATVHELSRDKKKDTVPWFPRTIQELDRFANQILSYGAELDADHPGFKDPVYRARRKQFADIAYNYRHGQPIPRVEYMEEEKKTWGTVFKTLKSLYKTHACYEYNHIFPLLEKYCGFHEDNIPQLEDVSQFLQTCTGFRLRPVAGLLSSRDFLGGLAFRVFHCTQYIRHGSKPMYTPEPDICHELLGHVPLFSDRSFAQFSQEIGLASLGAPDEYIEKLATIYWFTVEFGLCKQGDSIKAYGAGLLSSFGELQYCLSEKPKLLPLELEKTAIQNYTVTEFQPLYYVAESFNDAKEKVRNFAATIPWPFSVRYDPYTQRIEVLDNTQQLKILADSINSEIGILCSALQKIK
For `CN(C)CCc1ccc2c(C(=O)N3CCc4[nH]cnc4C3c3cc4cccc(C(F)(F)F)n4n3)cnn2c1` (stereo not drawn), the AC50 was over 5 µM. Work on `FC(F)c1cccn2nc(C3c4nc[nH]c4CCN3c3nnc(-c4cnccn4)o3)cc12` (stereo not drawn) yielded an AC50 of 1 to 5 µM.

Same assay, conditions: A375 cells expressing human PAH R408W; 24 hrs compound incubation; 13C-Tyrosine by LC-MS; average where tested multiple times; read-out: AC50
`O=C(c1nnc(-c2cnn(C(F)F)c2)o1)N1CCc2[nH]cnc2[C@H]1c1cc2c(C3CC3)cccn2n1` [Example 1878, (S)-(4-(4-cyclopropylpyrazolo[1,5-a]pyridin-2-yl)-1,4,6,7-tetrahydro-5H-imidazo[4,5-c]pyridin-5-yl)(5-(1-(difluoromethyl)-1H-pyrazol-4-yl)-1,3,4-oxadiazol-2-yl)methanone] showed an AC50 of 0.5 to 1 µM. With `Cc1cccn2nc([C@H]3c4nc[nH]c4CCN3C(=O)c3nnc(-c4cnn(C)c4)s3)cc12` [Example 2046, (R)-(5-(1-methyl-1H-pyrazol-4-yl)-1,3,4-thiadiazol-2-yl)(4-(4-methylpyrazolo[1,5-a]pyridin-2-yl)-1,4,6,7-tetrahydro-5H-imidazo[4,5-c]pyridin-5-yl)methanone] the AC50 was over 5 µM. For `COc1cccn2nc([C@H]3c4nc[nH]c4CCN3c3nnc(C(F)(F)F)o3)cc12` [Example 2165, (R)-2-(4-(4-methoxypyrazolo[1,5-a]pyridin-2-yl)-1,4,6,7-tetrahydro-5H-imidazo[4,5-c]pyridin-5-yl)-5-(trifluoromethyl)-1,3,4-oxadiazole], the AC50 was over 5 µM.

Same assay, conditions: A375 cells expressing human R408W PAH; 24 hrs compound incubation; 13C-Tyrosine by LC-MS; average where tested multiple times; read-out: AC50
Work on `Cc1cccn2nc([C@@H]3c4nc[nH]c4CCN3C(=O)c3nnc(N4CCC(F)CC4)o3)cc12` [Example 1012, (S)-(5-(4-fluoropiperidin-1-yl)-1,3,4-oxadiazol-2-yl)(4-(4-methylpyrazolo[1,5-a]pyridin-2-yl)-6,7-dihydro-1H-imidazo[4,5-c]pyridin-5(4H)-yl)methanone] yielded an AC50 of 0.5 to 1 µM. `COc1ccc(-c2nnc(C(=O)N3CCc4[nH]cnc4[C@@H]3c3cc4cccc(C(F)(F)F)n4n3)o2)cn1` [Example 1345, (R)-(5-(6-methoxypyridin-3-yl)-1,3,4-oxadiazol-2-yl)(4-(7-(trifluoromethyl)pyrazolo[1,5-a]pyridin-2-yl)-6,7-dihydro-1H-imidazo[4,5-c]pyridin-5(4H)-yl)methanone] showed an AC50 of 1 to 5 µM. `O=C(c1cnn2cc(C3CC3)ccc12)N1CCc2[nH]cnc2[C@H]1c1cc2c(Cl)cccn2n1` [Example 1768, (S)-(4-(4-chloropyrazolo[1,5-a]pyridin-2-yl)-6,7-dihydro-1H-imidazo[4,5-c]pyridin-5(4H)-yl)(6-cyclopropylpyrazolo[1,5-a]pyridin-3-yl)methanone] was tested, and the AC50 was under 0.5 µM. Work on `Cc1cccn2nc([C@H]3c4nc[nH]c4CCN3C(=O)c3nnc(-c4ccccn4)o3)cc12` [Example 740, (R)-(4-(4-methylpyrazolo[1,5-a]pyridin-2-yl)-6,7-dihydro-1H-imidazo[4,5-c]pyridin-5(4H)-yl)(5-(pyridin-2-yl)-1,3,4-oxadiazol-2-yl)methanone] yielded an AC50 of over 5 µM. `Cn1ccc(-c2nnc(C(=O)N3CCc4[nH]cnc4[C@@H]3c3cc4cccc(Cl)n4n3)o2)n1` [Example 977, (R)-(4-(7-chloropyrazolo[1,5-a]pyridin-2-yl)-6,7-dihydro-1H-imidazo(4,5-c]pyridin-5(4H)-yl)(5-(1-methyl-1H-pyrazol-3-yl)-1,3,4-oxadiazol-2-yl)methanone] showed an AC50 of over 5 µM. In the case of `Cc1ccc2cc([C@H]3c4nc[nH]c4CCN3C(=O)c3nnc(-c4ccccn4)o3)nn2c1` [Example 813, (R)-(4-(6-methylpyrazolo[1,5-a]pyridin-2-yl)-6,7-dihydro-1H-imidazo[4,5-c]pyridin-5(4H)-yl)(5-(pyridin-2-yl)-1,3,4-oxadiazol-2-yl)methanone], the AC50 is reported as over 5 µM. `O=C(c1oc(C2(O)CC2)nc1C(F)F)N1CCc2[nH]cnc2[C@@H]1c1cc2c(C(F)(F)F)cccn2n1` [Example 1223, (R)-(4-(difluoromethyl)-2-(1-hydroxycyclopropyl)oxazol-5-yl)(4-(4-(trifluoromethyl)pyrazolo[1,5-a]pyridin-2-yl)-6,7-dihydro-1H-imidazo[4,5-c]pyridin-5(4H)-yl)methanone] was tested, and the AC50 was 1 to 5 µM.
